Entries after “also recorded” stand apart in the source; their conditions may differ. Peptide text beside a SMILES is read from it. * marks the point of attachment. Cbz = O=C(OCc1ccccc1)*

Broadly, the IC50 is the concentration that gives 50% inhibition.

The target in experiment [1] is T1, TPL-2/COT kinase (FLAG-COT (30-397)) (Homo sapiens, UniProt P41279).
T1 construct: made in house; host or cells: human 293A cells, transient transfection of a pcDNA vector, anti-FLAG immunoprecipitation
Briefly: TPL-2/COT kinase assay and inhibitor screening (COT autophosphorylation and phosphorylation of GST-IκB-α). Type of experiment: biochemical. Particulars: for inhibitory activity on COT autophosphorylation and phosphorylation of a COT target (IκB-α): initial screen at 100 μM in duplicate; for IC50: retested at 100 μM, 10 μM and 1 μM, compared to DMSO vehicle control, read-out: IC50 for TPL-2 inhibition (inhibits TPL-2 kinase activity by 50%). The protocol:
FLAG-tagged COT protein was expressed in 293A cells by transfection. Typically, 24 h before transfection, human 293A cells (Quantum) were plated at 2×10^6 cells per 10 cm plate. A transfection mixture was prepared comprising 60 μl Lipofectamine (Gibco) and 800 μl Optimem (Gibco) in 15 ml tube. In. a separate tube, 8 μg of DNA encoding a FLAG-tagged COT(30-397) gene in a pcDNA vector was added to 800 μl Optimem. The contents of each tube were then mixed gently with a pipette, and allowed to incubate at room temperature for 25 min. Cells were washed once with Optimem and incubated with the transfection mixture and 6.4 ml of Optimem and allowed to incubate 5 h at 37° C. and 5% CO2. Cells were then incubated with 8 ml DMEM+10% FBS+L-glutamine on day 1, DMEM+5% FBS+L-glutamine on day 2 and harvested 48 h post-transfection.
Transfected 293A cells expressing FLAG-COT (30-397) were lysed on ice for 15 min in lysis buffer (1% Triton X-100, 50 mM Tris-HCl pH 7.5, 150 mM NaCl, 1 mM EDTA, 1 mM EGTA, 20 mM NaF, 10 mM Na4P2O7, 50 mM Na3VO4 plus Complete protease inhibitors (Boehringer)) and lysates were centrifuged (14,000 rpm for 10 min at 4° C.) and supernatants were collected. Immunoprecipitations were performed using FLAG Ab gel (Sigma) at 50 μg Ab per ml of lysate for 3 h at 4° C. with mixing. Gel beads were washed at 4° C. twice with lysis buffer and then twice with wash buffer (50 mM Tris-HCl pH 7.5, 100 mM NaCl, 0.1 mM EGTA and 1 mM DTT). Gel beads were then resuspended in wash buffer and aliquoted into tubes for various kinase reactions.
A TPL-2/COT kinase assay was used to screen various candidate TPL-2/COT kinase inhibitors. The kinase assay was performed a follows. A TPL-2 kinase (i.e., FLAG-COT (30-397)) bound on gel beads was incubated with 2 μg of a target polypeptide substrate (i.e., GST IκB-α (1-50) (Boston Biologicals) in kinase buffer (50 mM Tris-HCl pH 7.5, 10 mM MgCl2, 1 mM EGTA, 2 mM DTT and 0.01% Brij 35) in the presence of an appropriate radiolabel (30 μM ATP and 5 μCi γ-^32P-ATP (Amersham)) for 10 min at 25° C. Reactions were performed in the presence or absence of candidate compounds for inhibitor activity that were prepared as 10 mM stock solutions in 100% DMSO. The test compounds were added to the kinase reaction mixture immediately before addition of […]. Reactions were stopped by the addition of 5×SDS sample buffer, heating at 100° C. for 3 min and supernatants were collected using centrifugation. The autophosphorylation of COT and phosphorylation of the target polypeptide, i.e., GST-IκB-α were analyzed by gel electrophoresis (10% SDS-PAGE) followed by transfer to nitrocellulose membranes and autoradiography. As a control to confirm equivalent levels of FLAG-COT(30-397) and GST-IκB-α proteins were used in the different kinase reactions and also equivalent gel loading, immunoblots were performed with anti-FLAG and anti-GST antibodies, respectively, on the same membranes used for autoradiography. Inhibition of COT kinase activity, either autophosphorylation activity or phosphorylation of the target polypeptide GST-IκB-α was quantitated by scanning of autoradiographs (FIG. 13). Compounds that altered the level of these activities were further analyzed as described below.
As similarly described above, a TPL-2 polypeptide expressed in insect cells was tested for kinase activity using a target polypeptide in the presence or absence of a candidate modulator compound. […]

Experiment [2] has as its system TPL-2-induced myc-p105 proteolysis in 3T3 cells. The experiment in a line: Pulse-chase metabolic labeling of TPL-2-induced myc-p105 proteolysis. The experiment is classed as cell-based. The protocol: Pulse-chase metabolic labeling is performed to determine whether TPL-2 regulates the proteolysis of myc-p105 in 3T3 fibroblasts. For pulse-chase metabolic labeling, NIH-3T3 fibroblasts are transiently transfected using LipofectAMINE (Gibco-BRL) (Huby, et al., (1997) J. Cell. Biol. 137, 1639-1649). Preparation of cytoplasmic and nuclear fractions is performed as described (Watanabe, et al., (1997)
EMBO J. 16, 3609-3620). For pulse-chase metabolic labeling, 2.7×10^5 3T3 cells per 60 mm dish (Nunc) are transfected with the indicated expression vectors. After 24 h, cells are washed and cultured in Met/Cys-free medium for 1 h. Cells are then labeled with 145 MBq of [^35S]-Met/[^35S]-Cys (Pro-Mix, Amersham-Pharmacia Biotech) per dish for 30 min and after washing, chased in complete medium for the indicated times. […] MG132 proteasome inhibitor (Biomol Research labs) is added at […] during the last 15 min of the Met/Cys starvation period and is maintain throughout the chase. Labeled bands are quantified by laser densitometry using a Molecular Dynamics Personal Densitometer. All pulse-chase experiments are performed on at least two occasions with similar results.
The effect of the peptide aldehyde MG132, a potent inhibitor of the proteasome, is determined to investigate whether myc-p105 proteolysis induced by TPL-2 is mediated by the proteasome. […]

A further experiment deals with T2, HA-p105(369-969) (Homo sapiens (Human), UniProt P19838 368-968).
T2 construct: also called p105?N
T2 sequence: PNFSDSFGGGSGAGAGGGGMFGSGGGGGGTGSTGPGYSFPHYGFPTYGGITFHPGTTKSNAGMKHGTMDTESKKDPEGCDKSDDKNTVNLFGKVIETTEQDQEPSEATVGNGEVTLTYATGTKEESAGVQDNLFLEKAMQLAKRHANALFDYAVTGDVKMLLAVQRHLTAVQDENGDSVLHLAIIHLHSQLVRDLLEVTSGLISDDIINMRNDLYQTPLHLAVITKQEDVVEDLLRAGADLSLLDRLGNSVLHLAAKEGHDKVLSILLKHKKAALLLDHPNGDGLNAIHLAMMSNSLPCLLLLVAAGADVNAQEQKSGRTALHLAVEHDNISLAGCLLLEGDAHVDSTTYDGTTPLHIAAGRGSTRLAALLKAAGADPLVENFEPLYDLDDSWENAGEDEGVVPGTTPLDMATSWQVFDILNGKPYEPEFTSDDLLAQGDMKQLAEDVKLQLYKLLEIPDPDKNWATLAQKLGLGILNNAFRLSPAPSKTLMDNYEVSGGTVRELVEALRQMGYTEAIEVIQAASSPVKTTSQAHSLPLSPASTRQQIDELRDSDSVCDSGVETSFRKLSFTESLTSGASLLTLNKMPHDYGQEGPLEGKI
The experiment in a line: co-expression in Sf9 cells, purification of the complex from lysates.

For the next experiment, the target named is Myc-TPL-2ΔC (Homo sapiens (Human), UniProt P41279 1-397). Briefly: cell-based or functional assay.

Consider `CN[C@@H]1C[C@H]2O[C@@](C)([C@@H]1OC)n1c3ccccc3c3c4c(c5c6ccccc6n2c5c31)C(=O)NC4` [staurosporine], for which the “inhibitory activity on COT autophosphorylation and phosphorylation of a COT target (IκB-α)” value (shortened to “inhibitory activity”) in experiment [1] is on record as “little or no inhibitory activity”.

In the case of `C[S+]([O-])c1ccc(-c2nc(-c3ccncc3)c(-c3ccc(F)cc3)[nH]2)cc1` (stereo not shown) [SB 203580], the “inhibitory activity” value in experiment [1] is “little or no inhibitory activity”.

Take `CC(C)C[C@@H](C=O)NC(=O)[C@H](CC(C)C)NC(=O)[C@H](CC(C)C)NC(=O)OCc1ccccc1` [MG132] (Cbz-Leu-Leu-Leu-aldehyde): in experiment [2] (3T3 cells co-transfected with myc-p105 and TPL-2, drug maintained throughout chase), the “effect on TPL-2-induced increased turnover (proteolysis) of myc-p105” value is given as “blocks increased turnover of myc-p105”. In experiment [2] (TPL-2 co-expressing 3T3 cells, during the chase), the “effect on production of myc-p50” value is “completely prevents production of myc-p50; also recorded: completely blocked the production of myc-p50”.

Take `c1ccc(Oc2ccc3nccc(Nc4ccc(Sc5ccccc5)cc4)c3c2)cc1` [N-(6-phenoxy-4-quinolyl)-N-[4-(phenylsulfanyl)phenyl]amine]: in experiment [1], the IC50 amounted to 50 µM.

As for `COc1cccc(-c2cc(=O)c3ccccc3o2)c1N` [PD98059], the “inhibitory activity” value in experiment [1] is “little or no inhibitory activity”.

Take `CCOC(=O)c1cnc2c(c1Nc1ccc(Sc3ccccc3)cc1)C(=O)CCC2` [ethyl 5-oxo-4-[4-(phenylsulfanyl)anilino]-5,6,7,8-tetrahydro-3-quinolinecarboxylate]: in experiment [1], the IC50 is 10 µM.

B1: Flag-COT(30-467) (enzyme, not shown: small tags and cut ends)
chain: MENLYASEEPAVYEPSLMTMCQDSNQNDERSKSLLLSGQEVPWLSSVRYGTVEDLLAFANHISNTAKHFYGQRPQESGILLNMVITPQNGRYQIDSDVLLIPWKLTYRNIGSDFIPRGAFGKVYLAQDIKTKKRMACKLIPVDQFKPSDVEIQACFRHENIAELYGAVLWGETVHLFMEAGEGGSVLEKLESCGPMREFEIIWVTKHVLKGLDFLHSKKVIHHDIKPSNIVFMSTKAVLVDFGLSVQMTEDVYFPKDLRGTEIYMSPEVILCRGHSTKADIYSLGATLIHMQTGTPPWVKRYPRSAYPSYLYIIHKQAPPLEDIADDCSPGMRELIEASLERNPNHRPRAADLLKHEALNPPREDQPRCTSLDSALLERKRLLSRKELELPENIADSSCTGSTEESEMLKRQRSLYIDLGALAGYFNLVRGPPTLEYG
Consider B1, for which the binding result with HA-p105(369-969) is given as “binds”.

B2: HA-p105 (other, not shown: small tags and cut ends)
chain: MAEDDPYLGRPEQMFHLDPSLTHTIFNPEVFQPQMALPTADGPYLQILEQPKQRGFRFRYVCEGPSHGGLPGASSEKNKKSYPQVKICNYVGPAKVIVQLVTNGKNIHLHAHSLVGKHCEDGICTVTAGPKDMVVGFANLGILHVTKKKVFETLEARMTEACIRGYNPGLLVHPDLAYLQAEGGGDRQLGDREKELIRQAALQQTKEMDLSVVRLMFTAFLPDSTGSFTRRLEPVVSDAIYDSKAPNASNLKIVRMDRTAGCVTGGEEIYLLCDKVQKDDIQIRFYEEEENGGVWEGFGDFSPTDVHRQFAIVFKTPKYKDINITKPASVFVQLRRKSDLETSEPKPFLYYPEIKDKEEVQRKRQKLMPNFSDSFGGGSGAGAGGGGMFGSGGGGGGTGSTGPGYSFPHYGFPTYGGITFHPGTTKSNAGMKHGTMDTESKKDPEGCDKSDDKNTVNLFGKVIETTEQDQEPSEATVGNGEVTLTYATGTKEESAGVQDNLFLEKAMQLAKRHANALFDYAVTGDVKMLLAVQRHLTAVQDENGDSVLHLAIIHLHSQLVRDLLEVTSGLISDDIINMRNDLYQTPLHLAVITKQEDVVEDLLRAGADLSLLDRLGNSVLHLAAKEGHDKVLSILLKHKKAALLLDHPNGDGLNAIHLAMMSNSLPCLLLLVAAGADVNAQEQKSGRTALHLAVEHDNISLAGCLLLEGDAHVDSTTYDGTTPLHIAAGRGSTRLAALLKAAGADPLVENFEPLYDLDDSWENAGEDEGVVPGTTPLDMATSWQVFDILNGKPYEPEFTSDDLLAQGDMKQLAEDVKLQLYKLLEIPDPDKNWATLAQKLGLGILNNAFRLSPAPSKTLMDNYEVSGGTVRELVEALRQMGYTEAIEVIQAASSPVKTTSQAHSLPLSPASTRQQIDELRDSDSVCDSGVETSFRKLSFTESLTSGASLLTLNKMPHDYGQEGPLEGKI
In the case of B2, the “MEK kinase activity of TPL-2ΔC relative to wild type TPL-2 in cells expressing p105” value in the experiment with Myc-TPL-2ΔC was greater than 40 fold.

B3: Flag-COT(30-397) (enzyme, not shown: small tags and cut ends)
chain: MENLYASEEPAVYEPSLMTMCQDSNQNDERSKSLLLSGQEVPWLSSVRYGTVEDLLAFANHISNTAKHFYGQRPQESGILLNMVITPQNGRYQIDSDVLLIPWKLTYRNIGSDFIPRGAFGKVYLAQDIKTKKRMACKLIPVDQFKPSDVEIQACFRHENIAELYGAVLWGETVHLFMEAGEGGSVLEKLESCGPMREFEIIWVTKHVLKGLDFLHSKKVIHHDIKPSNIVFMSTKAVLVDFGLSVQMTEDVYFPKDLRGTEIYMSPEVILCRGHSTKADIYSLGATLIHMQTGTPPWVKRYPRSAYPSYLYIIHKQAPPLEDIADDCSPGMRELIEASLERNPNHRPRAADLLKHEALNPPREDQPR
As to B3, the binding result in the experiment with HA-p105(369-969) is listed as “binds”.

(Values after US20030219427A1, “TPL-2/COT kinase and methods of use” (priority 1998, published 2003).)
